Experimental data: PubChem BioAssay AID1745844 (Carcinogenic Potency Database (CPDB), 2022)
Calls of active or inactive are those of the source. How the calls were made is not given here.

Tested on: rodent lifetime carcinogenesis bioassay, tumor incidence TD50
Test: chronic cancer bioassays in animals – CPDB, compiled studies (AID 1745844)

SMILES: CCOC(N)=O
- TD50 (hamster, strain Syrian Golden, females, in drinking water, site: adrenal gland, lesion: cortical carcinoma, dosed 90 weeks, study length 90 weeks): 349 mg/kg/day
- TD50 (hamster, strain Syrian Golden, females, in drinking water, site: adrenal gland, lesion: several types, types named in the paper, dosed 90 weeks, study length 90 weeks): 318 mg/kg/day
- TD50 (hamster, strain Syrian Golden, females, in drinking water, site: cecum, lesion: adenomatous polyp, dosed 90 weeks, study length 90 weeks): 294 mg/kg/day
- TD50 (hamster, strain Syrian Golden, females, in drinking water, site: dermis, lesion: melanocytoma, dosed 90 weeks, study length 90 weeks): 74.4 mg/kg/day
- TD50 (hamster, strain Syrian Golden, females, in drinking water, site: forestomach, lesion: carcinoma, dosed 90 weeks, study length 90 weeks): 374 mg/kg/day
- TD50 (hamster, strain Syrian Golden, females, in drinking water, site: forestomach, lesion: papilloma, dosed 55 weeks, study length 55 weeks): 102 mg/kg/day
- TD50 (hamster, strain Syrian Golden, females, in drinking water, site: forestomach, lesion: papilloma, dosed 90 weeks, study length 90 weeks): 44.5 mg/kg/day
- TD50 (hamster, strain Syrian Golden, females, in drinking water, site: gall bladder, lesion: papilloma, dosed 90 weeks, study length 90 weeks): 682 mg/kg/day
- TD50 (hamster, strain Syrian Golden, females, in drinking water, site: lung, lesion: adenoma, dosed 90 weeks, study length 90 weeks): 1360 mg/kg/day
- TD50 (hamster, strain Syrian Golden, females, in drinking water, site: ovary, lesion: carcinoma, dosed 90 weeks, study length 90 weeks): 682 mg/kg/day
- TD50 (hamster, strain Syrian Golden, females, in drinking water, site: skin, lesion: melanotic tumor, dosed 55 weeks, study length 55 weeks): 496 mg/kg/day
- TD50 (hamster, strain Syrian Golden, females, in drinking water, site: thyroid gland, lesion: several types, types named in the paper, dosed 90 weeks, study length 90 weeks): 538 mg/kg/day
- TD50 (hamster, strain Syrian Golden, females, in drinking water, site: vagina, lesion: carcinoma, dosed 90 weeks, study length 90 weeks): 314 mg/kg/day
- TD50 (hamster, strain Syrian Golden, males, in drinking water, site: adrenal gland, lesion: cortical adenoma, dosed 103 weeks, study length 103 weeks): 564 mg/kg/day
- TD50 (hamster, strain Syrian Golden, males, in drinking water, site: cecum, lesion: adenomatous polyp, dosed 103 weeks, study length 103 weeks): 765 mg/kg/day
- TD50 (hamster, strain Syrian Golden, males, in drinking water, site: dermis, lesion: melanocytoma, dosed 103 weeks, study length 103 weeks): 109 mg/kg/day
- TD50 (hamster, strain Syrian Golden, males, in drinking water, site: forestomach, lesion: carcinoma, dosed 103 weeks, study length 103 weeks): 135 mg/kg/day
- TD50 (hamster, strain Syrian Golden, males, in drinking water, site: forestomach, lesion: papilloma, dosed 76 weeks, study length 76 weeks): 95.8 mg/kg/day
- TD50 (hamster, strain Syrian Golden, males, in drinking water, site: forestomach, lesion: papilloma, dosed 103 weeks, study length 103 weeks): 64.2 mg/kg/day
- TD50 (hamster, strain Syrian Golden, males, in drinking water, site: liver, lesion: several types, types named in the paper, dosed 103 weeks, study length 103 weeks): 1280 mg/kg/day
- TD50 (hamster, strain Syrian Golden, males, in drinking water, site: lung, lesion: adenoma, dosed 103 weeks, study length 103 weeks): 927 mg/kg/day
- TD50 (hamster, strain Syrian Golden, males, in drinking water, site: skin, lesion: melanotic tumor, dosed 76 weeks, study length 76 weeks): 74.2 mg/kg/day
- TD50 (monkey, strain Cynomolgus [Macaca fascicularis], both sexes, in feed, site: any site (literature study), lesion: benign tumor, dosed 258 weeks, study length 1208 weeks): 128 mg/kg/day
- TD50 (monkey, strain Cynomolgus [Macaca fascicularis], both sexes, in feed, site: any site (literature study), lesion: malignant tumor, dosed 258 weeks, study length 1208 weeks): 21.5 mg/kg/day
- TD50 (monkey, strain Cynomolgus [Macaca fascicularis], both sexes, in feed, site: any site (literature study), lesion: several types, types named in the paper, dosed 258 weeks, study length 1208 weeks): 25.5 mg/kg/day
- TD50 (monkey, strain Cynomolgus [Macaca fascicularis], both sexes, in feed, site: liver, lesion: hemangiosarcoma, dosed 258 weeks, study length 1208 weeks): 95 mg/kg/day
- TD50 (monkey, strain Cynomolgus [Macaca fascicularis], both sexes, in feed, site: liver, lesion: hepatocellular adenoma, dosed 258 weeks, study length 1208 weeks): 31.7 mg/kg/day
- TD50 (monkey, strain Cynomolgus [Macaca fascicularis], both sexes, in feed, site: lung, lesion: bronchogenic carcinoma, dosed 258 weeks, study length 1208 weeks): 31.7 mg/kg/day
- TD50 (monkey, strain Cynomolgus [Macaca fascicularis], both sexes, in feed, site: pancreas, lesion: adenocarcinoma, dosed 258 weeks, study length 1208 weeks): 52.8 mg/kg/day
- TD50 (monkey, strain Cynomolgus [Macaca fascicularis], both sexes, in feed, site: several sites, pooled by Berkeley, lesion: several types, pooled by Berkeley, dosed 258 weeks, study length 1208 weeks): 16.4 mg/kg/day
- TD50 (monkey, strain Rhesus [Macaca mulatta], both sexes, in feed, site: adrenal gland, lesion: pheochromocytoma, dosed 258 weeks, study length 1281 weeks): 117 mg/kg/day
- TD50 (monkey, strain Rhesus [Macaca mulatta], both sexes, in feed, site: any site (literature study), lesion: benign tumor, dosed 258 weeks, study length 1281 weeks): 75.9 mg/kg/day
- TD50 (monkey, strain Rhesus [Macaca mulatta], both sexes, in feed, site: any site (literature study), lesion: malignant tumor, dosed 258 weeks, study length 1281 weeks): 52.9 mg/kg/day
- TD50 (monkey, strain Rhesus [Macaca mulatta], both sexes, in feed, site: any site (literature study), lesion: several types, types named in the paper, dosed 258 weeks, study length 1281 weeks): 26.3 mg/kg/day
- TD50 (monkey, strain Rhesus [Macaca mulatta], both sexes, in feed, site: cheek pouch, lesion: squamous-cell papilloma, dosed 258 weeks, study length 1281 weeks): 75.5 mg/kg/day
- TD50 (monkey, strain Rhesus [Macaca mulatta], both sexes, in feed, site: jejunum, lesion: adenocarcinoma, dosed 258 weeks, study length 1281 weeks): 65.2 mg/kg/day
- TD50 (monkey, strain Rhesus [Macaca mulatta], both sexes, in feed, site: liver, lesion: hemangiosarcoma, dosed 258 weeks, study length 1281 weeks): 143 mg/kg/day
- TD50 (monkey, strain Rhesus [Macaca mulatta], both sexes, in feed, site: liver, lesion: hepatocellular carcinoma, dosed 258 weeks, study length 1281 weeks): 143 mg/kg/day
- TD50 (monkey, strain Rhesus [Macaca mulatta], both sexes, in feed, site: several sites, pooled by Berkeley, lesion: several types, pooled by Berkeley, dosed 258 weeks, study length 1281 weeks): 44.8 mg/kg/day
- TD50 (mouse, strain B6AKF1, females, oral dosing, site: Harderian gland, lesion: adenoma, dosed 73 weeks, study length 73 weeks): 59.7 mg/kg/day
- TD50 (mouse, strain B6AKF1, females, oral dosing, site: all sites, lesion: angioma, dosed 73 weeks, study length 73 weeks): 31.7 mg/kg/day
- TD50 (mouse, strain B6AKF1, females, oral dosing, site: any site (literature study), lesion: several types, types named in the paper, dosed 73 weeks, study length 73 weeks): 9.73 mg/kg/day
- TD50 (mouse, strain B6AKF1, females, oral dosing, site: liver, lesion: hepatoma, dosed 73 weeks, study length 73 weeks): 89.9 mg/kg/day
- TD50 (mouse, strain B6AKF1, females, oral dosing, site: lung, lesion: adenoma, dosed 73 weeks, study length 73 weeks): 29.3 mg/kg/day
- TD50 (mouse, strain B6AKF1, females, oral dosing, site: lung, lesion: carcinoma, dosed 73 weeks, study length 73 weeks): 89.9 mg/kg/day
- TD50 (mouse, strain B6AKF1, females, oral dosing, site: lung, lesion: several types, types named in the paper, dosed 73 weeks, study length 73 weeks): 12.5 mg/kg/day
- TD50 (mouse, strain B6AKF1, males, oral dosing, site: Harderian gland, lesion: adenoma, dosed 72 weeks, study length 72 weeks): 35.8 mg/kg/day
- TD50 (mouse, strain B6AKF1, males, oral dosing, site: all sites, lesion: reticulum-cell sarcoma, dosed 72 weeks, study length 72 weeks): 77.9 mg/kg/day
- TD50 (mouse, strain B6AKF1, males, oral dosing, site: any site (literature study), lesion: several types, types named in the paper, dosed 72 weeks, study length 72 weeks): 11.2 mg/kg/day
- TD50 (mouse, strain B6AKF1, males, oral dosing, site: liver, lesion: hepatoma, dosed 72 weeks, study length 72 weeks): 39 mg/kg/day
- TD50 (mouse, strain B6AKF1, males, oral dosing, site: liver, lesion: several types, types named in the paper, dosed 72 weeks, study length 72 weeks): 26 mg/kg/day
- TD50 (mouse, strain B6AKF1, males, oral dosing, site: lung, lesion: adenoma, dosed 72 weeks, study length 72 weeks): 27.8 mg/kg/day
- TD50 (mouse, strain B6AKF1, males, oral dosing, site: lung, lesion: several types, types named in the paper, dosed 72 weeks, study length 72 weeks): 24.2 mg/kg/day
- TD50 (mouse, strain B6C3F1, females, oral dosing, site: any site (literature study), lesion: several types, types named in the paper, dosed 68 weeks, study length 68 weeks): 13.7 mg/kg/day
- TD50 (mouse, strain B6C3F1, females, oral dosing, site: liver, lesion: hepatoma, dosed 68 weeks, study length 68 weeks): 55.9 mg/kg/day
- TD50 (mouse, strain B6C3F1, females, oral dosing, site: liver, lesion: several types, types named in the paper, dosed 68 weeks, study length 68 weeks): 32.4 mg/kg/day
- TD50 (mouse, strain B6C3F1, females, oral dosing, site: lung, lesion: adenoma, dosed 68 weeks, study length 68 weeks): 97.4 mg/kg/day
- TD50 (mouse, strain B6C3F1, females, oral dosing, site: lung, lesion: several types, types named in the paper, dosed 68 weeks, study length 68 weeks): 79 mg/kg/day
- TD50 (mouse, strain B6C3F1, males, in drinking water, site: heart, lesion: hemangiosarcoma, dosed 65 weeks, study length 70 weeks): 417 mg/kg/day
- TD50 (mouse, strain B6C3F1, males, in drinking water, site: liver, lesion: hemangioma, dosed 65 weeks, study length 70 weeks): 63.3 mg/kg/day
- TD50 (mouse, strain B6C3F1, males, in drinking water, site: liver, lesion: hemangiosarcoma, dosed 65 weeks, study length 70 weeks): 122 mg/kg/day
- TD50 (mouse, strain B6C3F1, males, in drinking water, site: liver, lesion: hepatocellular adenoma, dosed 65 weeks, study length 70 weeks): 38.2 mg/kg/day
- TD50 (mouse, strain B6C3F1, males, in drinking water, site: lung, lesion: alveolar/bronchiolar adenoma, dosed 65 weeks, study length 70 weeks): 5.91 mg/kg/day
- TD50 (mouse, strain B6C3F1, males, in drinking water, site: lung, lesion: alveolar/bronchiolar carcinoma, dosed 65 weeks, study length 70 weeks): 242 mg/kg/day
- TD50 (mouse, strain B6C3F1, males, in drinking water, site: lung, lesion: several types, types named in the paper, dosed 65 weeks, study length 70 weeks): 5.91 mg/kg/day
- TD50 (mouse, strain B6C3F1, males, oral dosing, site: any site (literature study), lesion: several types, types named in the paper, dosed 70 weeks, study length 70 weeks): 22.4 mg/kg/day
- TD50 (mouse, strain B6C3F1, males, oral dosing, site: liver, lesion: hepatoma, dosed 70 weeks, study length 70 weeks): 81.7 mg/kg/day
- TD50 (mouse, strain B6C3F1, males, oral dosing, site: liver, lesion: several types, types named in the paper, dosed 70 weeks, study length 70 weeks): 46 mg/kg/day
- TD50 (mouse, strain B6C3F1, males, oral dosing, site: lung, lesion: adenoma, dosed 70 weeks, study length 70 weeks): 81.7 mg/kg/day
- TD50 (mouse, strain B6C3F1, males, oral dosing, site: lung, lesion: several types, types named in the paper, dosed 70 weeks, study length 70 weeks): 65.9 mg/kg/day
- TD50 (mouse, strain CF-1, females, in drinking water, site: any site (literature study), lesion: several types, types named in the paper, dosed 133 weeks, study length 133 weeks): 23.3 mg/kg/day
- carcinogen call (mouse, strain CF-1, females, in drinking water, site: liver, lesion: hepatoma, dosed 133 weeks, study length 133 weeks): negative (inactive)
- TD50 (mouse, strain CF-1, females, in drinking water, site: lung, lesion: one or several types, types not named, dosed 133 weeks, study length 133 weeks): 23.8 mg/kg/day
- TD50 (mouse, strain CF-1, males, in drinking water, site: any site (literature study), lesion: several types, types named in the paper, dosed 125 weeks, study length 125 weeks): 12.1 mg/kg/day
- carcinogen call (mouse, strain CF-1, males, in drinking water, site: liver, lesion: hepatoma, dosed 125 weeks, study length 125 weeks): negative (inactive)
- TD50 (mouse, strain CF-1, males, in drinking water, site: lung, lesion: one or several types, types not named, dosed 125 weeks, study length 125 weeks): 13.2 mg/kg/day
- TD50 (mouse, strain NMRI, both sexes, in drinking water, site: any site (literature study), lesion: benign tumor, dosed 101 weeks, study length 104 weeks): 0.434 mg/kg/day
- TD50 (mouse, strain NMRI, both sexes, in drinking water, site: any site (literature study), lesion: malignant tumor, dosed 101 weeks, study length 104 weeks): 14.7 mg/kg/day
- TD50 (mouse, strain Swiss, both sexes, in feed, site: lung, lesion: adenocarcinoma, dosed 116 weeks, study length 116 weeks): 5060 mg/kg/day
- TD50 (mouse, strain Swiss, both sexes, in feed, site: lung, lesion: adenoma, dosed 116 weeks, study length 116 weeks): 36.1 mg/kg/day
- TD50 (rat, strain Sprague-Dawley, both sexes, in drinking water, site: any site (literature study), lesion: benign tumor, dosed 97 weeks, study length 104 weeks): 91.2 mg/kg/day
- TD50 (rat, strain Sprague-Dawley, both sexes, in drinking water, site: any site (literature study), lesion: malignant tumor, dosed 97 weeks, study length 104 weeks): 41.3 mg/kg/day
